Measured values from ChEMBL document CHEMBL5727000, “Carboxamide or sulfonamide substituted thiazoles and related derivatives as modulators for the orphan nuclear receptor ROR[γ]” (2019).
Several values for one entry are separate records, joined by “and”; a condition that tells them apart may be missing. Identical values can stand only once.

test: RORgamma Gal4 Reporter Gene Assay (REN): Cells were incubated for additional 16 h before renilla (REN) luciferase activities were measured sequentially in the same cell extract using a Dual-Light-Luciferase-Assay system (Dyer et al., Anal. Biochem. 2000, 282:158). All experiments were done at least in triplicates.

SMILES | IC50
CC(C)(C)NS(=O)(=O)c1ccc(-c2sc(C(=O)NN3CCS(=O)(=O)CC3)nc2CC2CCCCC2)c(Cl)c1Cl | 2 nM
CC(C)(C)NS(=O)(=O)c1ccc(-c2sc(C(=O)NC3CCS(=O)(=O)CC3)nc2CC2CCCCC2)c2ccncc12 | 12.6 nM
CC(C)(C)NS(=O)(=O)c1ccc(-c2sc(C(=O)NC3CCOCC3)nc2CC2CCCCC2)cc1C(C)(C)O | 20 nM
COCC(C)(C)NS(=O)(=O)c1ccc(-c2sc(C(=O)N3CC4(CCS(=O)(=O)CC4)C3)nc2CC2CCCCC2)c2ccccc12 | 39.8 nM
CCC1CCN(C(=O)c2nc(C(=O)NCC(C)(C)O)sc2-c2ccc(S(=O)(=O)NC(C)(C)C)c3ccccc23)CC1 | 31.6 nM
CC(C)(C)c1cc(-c2sc(C(=O)N[C@H]3C[C@H](C(=O)O)C3)nc2CC2CCCCC2)cc(C(C)(F)F)c1 | 39.8 nM
CC(C)(C)NS(=O)(=O)c1ccc(-c2sc(S(N)(=O)=O)nc2CC2CCCCC2)cc1C(C)(C)C | 251 nM
CC(C)(C)NS(=O)(=O)c1ccc(-c2sc(C(=O)NC3CCS(=O)(=O)CC3)nc2C2CCCCC2)c2ccccc12 | 6.31 nM
CC(C)(C)NS(=O)(=O)c1ccc(-c2sc(C(=O)NC3CCS(=O)(=O)CC3)nc2CC2CCC2)c2ccccc12 | 3.98 nM
CC(C)(O)c1cc(-c2sc(C(=O)N[C@H]3C[C@@H](C(=O)O)C3)nc2CC2CCCCC2)cc(C2(C)CC2)c1 | 63.1 nM
CC(C)(C)NS(=O)(=O)c1ccc(-c2sc(C(=O)N[C@H]3C[C@H](C(=O)O)C3)nc2CC2CCCCC2)cc1C(F)(F)F | 10 nM
CC(C)(O)CNC(=O)c1nc(CC2CCCCC2)c(-c2ncc(S(=O)(=O)NC(C)(C)C)c3ccccc23)s1 | 20 nM
CC(C)(O)c1cc(-c2sc(C(=O)N[C@H]3C[C@H](C(=O)O)C3)nc2CC2CCCCC2)cc(C2(C)CC2)c1 | 79.4 nM
CC(C)(C)NS(=O)(=O)c1ccc(-c2oc(C(=O)NC34CCC(C(=O)O)(CC3)CC4)nc2CC2CCCCC2)c2ccccc12 | 12.6 nM
CC(C)(C)c1cc(-c2oc(C(N)=O)nc2CC2CCCCC2)cc(C(C)(C)C)c1 | 1580 nM
CC(C)(CCNC(=O)c1nc(CC2CCCCC2)c(-c2cc(C(C)(C)C)cc(C3(C)CC3)c2)s1)C(=O)O | 100 nM
CC(C)(C)NS(=O)(=O)c1ccc(-c2sc(C(=O)NC3CCS(=O)(=O)CC3)nc2-c2cccc(Cl)c2)c2ccccc12 | 6.31 nM
CC(C)(C)NS(=O)(=O)c1ccc(-c2sc(C(=O)NCCN3CCOCC3)nc2CC2CCCCC2)cc1C(C)(C)O | 200 nM
CC(C)(C)NS(=O)(=O)c1ccc(-c2sc(C(=O)NC34CCC(C(=O)O)(CC3)CC4)nc2CC2CCCCC2)c2ccccc12 | 6.31 nM
COC(c1nc(C(=O)NC2CCOCC2)sc1-c1cc(C(C)(C)C)cc(C2(C)CC2)c1)C1CCCCC1 (stereo not given) | 79.4 nM
CC(C)(C)NS(=O)(=O)c1ccc(-c2sc(C(=O)NC3CSC3)nc2CC2CCCCC2)c(Cl)c1Cl | 2 nM
O=C(c1nc(CC2CCCCC2)c(-c2ccc(S(=O)(=O)NC3CS(=O)(=O)C3)c3ccccc23)s1)N1CC2(CCS(=O)(=O)CC2)C1 | 398 nM
CC(C)(C)c1cc(-c2cc(C(N)=O)ccc2CC2CCCCC2)cc(C(C)(C)C)c1 | 501 nM
CC1CC(C)CN(C(=O)c2nc(C(=O)NCC(C)(C)O)sc2-c2ccc(S(=O)(=O)NC(C)(C)C)c3ccccc23)C1 (stereo not given) | 126 nM
CC(C)(CO)NS(=O)(=O)c1ccc(-c2sc(C(=O)N3CC4(CCS(=O)(=O)CC4)C3)nc2CC2CCCCC2)c2ccccc12 | 79.4 nM

SMILES | IC50
CCC(C)(C)NS(=O)(=O)c1ccc(-c2sc(C(=O)NCc3ncc(S(C)(=O)=O)s3)nc2C(=O)N2CCC(C)CC2)c(Cl)c1C | 20 nM
CC1CCN(C(=O)c2nc(C(=O)NCC(C)(C)O)sc2-c2ccc(S(=O)(=O)NCC(C)(C)O)c3ccccc23)CC1 | 1580 nM
CCCc1nc(C(=O)NCC(C)(C)O)sc1-c1ccc(S(=O)(=O)N[C@@H](C)C(F)(F)F)c2ccccc12 | 12.6 nM
CC(C)(C)NS(=O)(=O)c1ccc(-c2nc(C(=O)NC3CCS(=O)(=O)CC3)sc2CC2CCCCC2)c2ccccc12 | 1 nM
O=C(NC1CCS(=O)(=O)CC1)c1nc(CC2CCCCC2)c(-c2ccc(N3CCOCC3)c3ccccc23)s1 | 126 nM
CC(C)(C)NS(=O)(=O)c1ccc(-c2sc(C(=O)NC3CS(=O)(=O)C3)nc2CC2CCCCC2)cc1C(C)(C)O | 12.6 nM
CC(O)c1c(S(=O)(=O)NC(C)(C)C)ccc(-c2sc(C(=O)N3CC4(CCS(=O)(=O)CC4)C3)nc2CC2CCCCC2)c1Cl (stereo not given) | 200 nM
CNS(=O)(=O)c1ccc(-c2sc(C(=O)N3CC4(CCS(=O)(=O)CC4)C3)nc2CC2CCCCC2)c2ccccc12 | 251 nM
CC(C)(C)NS(=O)(=O)c1ccc(-c2oc(C(=O)NC3CCOCC3)nc2CC2CCCCC2)cc1C(C)(C)C | 501 nM
C[C@H](NC(=O)c1cc(-c2sc(C(=O)NCC(C)(C)c3nnn[nH]3)nc2CC2CCCCC2)cc(C2(C)CC2)c1)C(F)(F)F | 31.6 nM
CC(C)(C)NS(=O)(=O)c1ccc(-c2sc(C(=O)N[C@H]3C[C@H](C(=O)O)C3)nc2C2CCCCC2)c2ccccc12 | 10 nM
CC(C)(C)NS(=O)(=O)c1ccc(-c2sc(C(=O)NC3CC3)nc2CC2CCCCC2)c(Cl)c1Cl | 10 nM
Cc1c(C(=O)NC(C)(C)C)cc(-c2sc(C(=O)N[C@H]3C[C@H](C(=O)O)C3)nc2CC2CCCCC2)cc1C1(C)CC1 | 158 nM
CC(C)(C)NS(=O)(=O)c1ccc(-c2sc(C(=O)NN3CCOCC3)nc2CC2CCCCC2)c(Cl)c1Cl | 2 nM
CC(C)(CNC(=O)c1nc(CC2CCCCC2)c(-c2cc(C(C)(C)C)cc(C3(C)CC3)c2)o1)C(=O)O | 251 nM
CC(C)(C)NS(=O)(=O)c1ccc(-c2sc(C(=O)NC3CCS(=O)(=O)CC3)nc2CC2CCCCC2)c(Cl)c1Cl | 2 nM
CC(C)(C)c1cc(-c2sc(S(N)(=O)=O)nc2CC2CCCCC2)cc(C(C)(C)C)c1 | 398 nM
CC1CCN(C(=O)c2nc(C(=O)N3CC4(CCOCC4)C3)sc2-c2ccc(S(=O)(=O)NC(C)(C)C)c3ccccc23)CC1 | 63.1 nM
C[C@H](NS(=O)(=O)c1ccc(-c2sc(C(=O)NCC(C)(C)O)nc2CC2CCC2)c(Cl)c1)C(F)(F)F | 12.6 nM
CC(C)(C)c1cc(-c2nc(C(=O)NC3CCS(=O)(=O)CC3)oc2CC2CCCCC2)cc(C2(C)CC2)c1 | 251 nM
CC(C)(C)NS(=O)(=O)c1ccc(-c2sc(C(=O)N[C@H]3C[C@H](C(=O)O)C3)nc2CC2CCCCC2)cc1C(C)(C)O | 10 nM
CC(C)(C)NS(=O)(=O)c1ccc(-c2sc(C(=O)NC3CCS(=O)(=O)CC3)nc2CC2CC2)c(Cl)c1Cl | 31.6 nM
CC(C)(C)NS(=O)(=O)c1ccc(-c2oc(C(=O)N[C@H]3C[C@H](C(=O)NS(C)(=O)=O)C3)nc2CC2CCCCC2)c2ccccc12 | 200 nM
CC(C)(C)NS(=O)(=O)c1ccc(-c2sc(C(=O)NC3C[S+]([O-])C3)nc2CC2CCCCC2)cc1C(C)(C)O (stereo not given) | 10 nM and 50.1 nM
COC(c1nc(C(=O)NC2CCOCC2)sc1-c1ccc(S(=O)(=O)NC(C)(C)C)c(C(C)(C)C)c1)C1CCCCC1 (stereo not given) | 200 nM

SMILES | IC50
CC(C)(C)NS(=O)(=O)c1ccc(-c2sc(C(=O)N3CC(C(C)(C)C(=O)O)C3)nc2CC2CCCCC2)c(Cl)c1Cl | 126 nM
CC(C)(C#N)CNC(=O)c1nc(CC2CCCCC2)c(-c2ccc(S(=O)(=O)NC(C)(C)C)c3ccccc23)s1 | 2 nM
CC1(NC(=O)c2cc(-c3sc(C(=O)NC4CCS(=O)(=O)CC4)nc3CC3CCCCC3)cc(C3(C)CC3)c2)COC1 | 12.6 nM
CC1CCN(C(=O)c2nc(C(=O)NCC(C)(C)O)sc2-c2ccc(S(=O)(=O)N[C@@H](C)C(F)(F)F)c3ccccc23)CC1 | 20 nM
CC(C)(C)NS(=O)(=O)c1ccc(-c2sc(C(=O)NC3COC3)nc2CC2CCCCC2)c(Cl)c1Cl | 3.16 nM
CCC(C)(C)NS(=O)(=O)c1ccc(-c2sc(C(=O)NCC(C)(C)O)nc2C(=O)N2CCC(C)CC2)c(Cl)c1C | 3.16 nM
CC(C)(C)NS(=O)(=O)c1ccc(-c2sc(C(=O)NCC3(O)CCOCC3)nc2CC2CCCCC2)cc1C(C)(C)O | 20 nM
CC1CCCCN1C(=O)c1nc(C(=O)NCC(C)(C)O)sc1-c1ccc(S(=O)(=O)NC(C)(C)C)c2ccccc12 (stereo not given) | 50.1 nM
CC(C)(C)NS(=O)(=O)c1ccc(-c2sc(C(=O)NC3CCS(=O)(=O)CC3)nc2CC2CCCCC2)c2ccccc12 | 1 nM
CC1CCN(C(=O)c2nc(C(=O)NCC(C)(C)O)sc2-c2ccc(S(=O)(=O)NCC(F)(F)F)c3ccccc23)CC1 | 39.8 nM
CC1(c2cc(-c3sc(C(=O)N[C@H]4C[C@H](C(=O)O)C4)nc3CC3CCCCC3)cc(C(F)(F)F)c2)CC1 | 79.4 nM
COC(c1nc(C(=O)N[C@H]2C[C@H](C(=O)O)C2)sc1-c1cc(C(C)(C)C)cc(C2(C)CC2)c1)C1CCCCC1 (stereo not given in full) | 100 nM
CC(C)(C)NS(=O)(=O)c1ccc(-c2sc(C(=O)N[C@H]3C[C@H](C(=O)O)C3)nc2CC2CCCCC2)c2c1CCC2 | 3.16 nM
CC(C)(C)NS(=O)(=O)c1ccc(-c2sc(C(=O)NCCC(C)(C)C(=O)O)nc2CC2CCCCC2)cc1C(F)(F)F | 39.8 nM
CC(C)(C)NS(=O)(=O)c1ccc(-c2sc(C(=O)N[C@H]3C[C@H](C(=O)O)C3)nc2CC2CCCCC2)c(C(F)F)c1Cl | 3.16 nM
CC(C)(C)c1cc(-c2oc(C(=O)NC3CCOCC3)nc2CC2CCCCC2)cc(C2(C)CC2)c1 | 126 nM
CC(C)(C)NS(=O)(=O)c1ccc(-c2sc(C(=O)NC3CCC(C(=O)O)C3)nc2CC2CCCCC2)c2ccccc12 (stereo not given) | 3.98 nM
CC(C)(C)NS(=O)(=O)c1ccc(-c2sc(C(=O)NCCC(C)(C)C(=O)O)nc2CC2CCCCC2)c(Cl)c1Cl | 6.31 nM
CC(C)(C)NS(=O)(=O)c1ccc(-c2sc(C(=O)NC3CSC3)nc2CC2CCCCC2)c2ccccc12 | 2 nM
CC(C)(C)NS(=O)(=O)c1ccc(-c2nc(C(=O)NC34CCC(C(=O)O)(CC3)CC4)oc2CC2CCCCC2)c2ccccc12 | 39.8 nM
CC(C)(C)c1cc(-c2nc(C(N)=O)sc2CC2CCCCC2)cc(C(C)(C)C)c1 | 1580 nM
CC1CCN(C(=O)c2nc(C(=O)N3CC4(CCS(=O)(=O)CC4)C3)sc2-c2ccc(S(=O)(=O)NC(C)(C)C)c3ccccc23)CC1 | 251 nM
CC(C)COc1cc(-c2sc(C(=O)N[C@H]3C[C@H](C(=O)O)C3)nc2CC2CCCCC2)cc(C(C)(C)C)n1 | 39.8 nM
CN(C(=O)c1nc(CC2CCCCC2)c(-c2cc(C(C)(C)C)cc(C3(C)CC3)c2)s1)C1CCOCC1 | 126 nM
CC(C)(C)c1cc(-c2ccc(C(N)=O)cc2CC2CCCCC2)cc(C(C)(C)C)c1 | 631 nM
